According to ChEMBL document CHEMBL1201862, “PubChem BioAssay data set” (2004):
Activity calls are given as the source filed them.

Key:
[1] = target: Inhibitor of nuclear factor kappa-B kinase subunit epsilon (Homo sapiens, UniProt Q14164); assay: Navigating the Kinome. Panel member name: IKBKE; assay type: functional
[2] = target: Activin receptor type-1 (Homo sapiens, UniProt Q04771); assay: Navigating the Kinome. Panel member name: ACVR1; assay type: functional
[3] = target: Cyclin-dependent kinase 7 (Homo sapiens, UniProt P50613); assay type: functional;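 further: value comes from a kinome-wide kinase profiling panel in which CDK7 is one member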
[4] = target: Calcium/calmodulin-dependent protein kinase type II subunit alpha (Homo sapiens, UniProt Q9UQM7); assay: Navigating the Kinome. Panel member name: CAMK2A; assay type: functional
[5] = target: G protein-coupled receptor kinase 5 (Homo sapiens, UniProt P34947); assay: Navigating the Kinome. Panel member name: GPRK5; assay type: functional
[6] = target: Cyclin-dependent kinase 5 (Homo sapiens, UniProt Q00535); assay type: functional;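 further: CDK5 measured as one member of a kinase profiling panel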
[7] = target: Serine/threonine-protein kinase Chk2 (Homo sapiens, UniProt O96017); assay type: functional;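 further: CHEK2 entry within a kinome-wide screening panel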
[8] = target: Tyrosine-protein kinase ITK/TSK (Homo sapiens, UniProt Q08881); assay type: functional;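 further: affinity for ITK measured as one member of a broad kinase panel profiling binding across the kinome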
[9] = target: Insulin receptor (Homo sapiens, UniProt P06213); assay type: functional;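 further: insulin receptor kinase tested as one member of a kinome-wide kinase panel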
[10] = target: Fibroblast growth factor receptor 3 (Homo sapiens, UniProt P22607); assay type: functional
Fibroblast growth factor receptor 3, sequence (P22607 whole entry): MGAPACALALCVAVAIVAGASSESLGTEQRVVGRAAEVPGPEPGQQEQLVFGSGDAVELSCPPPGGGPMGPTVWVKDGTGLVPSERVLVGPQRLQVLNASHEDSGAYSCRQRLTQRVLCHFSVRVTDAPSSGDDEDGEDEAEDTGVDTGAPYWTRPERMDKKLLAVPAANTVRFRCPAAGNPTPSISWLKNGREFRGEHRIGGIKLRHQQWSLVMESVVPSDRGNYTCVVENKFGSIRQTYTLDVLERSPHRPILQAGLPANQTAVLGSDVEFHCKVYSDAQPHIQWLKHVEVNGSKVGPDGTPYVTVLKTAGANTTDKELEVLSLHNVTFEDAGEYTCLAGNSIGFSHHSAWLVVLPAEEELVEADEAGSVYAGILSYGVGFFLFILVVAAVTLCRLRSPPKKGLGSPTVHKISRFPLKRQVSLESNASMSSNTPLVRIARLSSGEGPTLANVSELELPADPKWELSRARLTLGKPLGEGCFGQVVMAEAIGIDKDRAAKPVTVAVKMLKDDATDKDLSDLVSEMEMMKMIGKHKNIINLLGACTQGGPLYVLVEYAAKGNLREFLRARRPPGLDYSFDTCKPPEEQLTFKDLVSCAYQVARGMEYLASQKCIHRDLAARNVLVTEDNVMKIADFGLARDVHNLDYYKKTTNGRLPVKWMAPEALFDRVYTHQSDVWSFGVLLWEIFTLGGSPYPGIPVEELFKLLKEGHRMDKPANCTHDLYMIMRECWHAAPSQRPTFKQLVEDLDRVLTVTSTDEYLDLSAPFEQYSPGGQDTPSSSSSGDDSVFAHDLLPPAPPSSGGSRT

[11] = target: Serine/threonine-protein kinase 17A (Homo sapiens, UniProt Q9UEE5); assay type: functional
Serine/threonine-protein kinase 17A, sequence (Q9UEE5 whole entry): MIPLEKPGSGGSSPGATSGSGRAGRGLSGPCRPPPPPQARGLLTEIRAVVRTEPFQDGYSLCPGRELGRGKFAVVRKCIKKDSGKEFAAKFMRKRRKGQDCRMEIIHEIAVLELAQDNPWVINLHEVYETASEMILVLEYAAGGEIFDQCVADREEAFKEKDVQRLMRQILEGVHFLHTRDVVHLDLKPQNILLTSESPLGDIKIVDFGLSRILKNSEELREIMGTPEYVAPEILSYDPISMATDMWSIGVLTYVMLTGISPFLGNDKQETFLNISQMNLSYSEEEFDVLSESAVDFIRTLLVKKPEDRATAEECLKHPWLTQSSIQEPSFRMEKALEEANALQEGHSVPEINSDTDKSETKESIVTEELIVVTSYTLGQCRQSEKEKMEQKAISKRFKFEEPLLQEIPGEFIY

[12] = target: MAP kinase-activated protein kinase 5 (Homo sapiens, UniProt Q8IW41); assay type: functional;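 further: measured as one member of a kinome panel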
[13] = target: Dual specificity tyrosine-phosphorylation-regulated kinase 4 (Homo sapiens, UniProt Q9NR20); assay type: functional
[14] = target: Eukaryotic elongation factor 2 kinase (Homo sapiens, UniProt O00418); assay type: functional
Eukaryotic elongation factor 2 kinase, sequence (O00418 whole entry): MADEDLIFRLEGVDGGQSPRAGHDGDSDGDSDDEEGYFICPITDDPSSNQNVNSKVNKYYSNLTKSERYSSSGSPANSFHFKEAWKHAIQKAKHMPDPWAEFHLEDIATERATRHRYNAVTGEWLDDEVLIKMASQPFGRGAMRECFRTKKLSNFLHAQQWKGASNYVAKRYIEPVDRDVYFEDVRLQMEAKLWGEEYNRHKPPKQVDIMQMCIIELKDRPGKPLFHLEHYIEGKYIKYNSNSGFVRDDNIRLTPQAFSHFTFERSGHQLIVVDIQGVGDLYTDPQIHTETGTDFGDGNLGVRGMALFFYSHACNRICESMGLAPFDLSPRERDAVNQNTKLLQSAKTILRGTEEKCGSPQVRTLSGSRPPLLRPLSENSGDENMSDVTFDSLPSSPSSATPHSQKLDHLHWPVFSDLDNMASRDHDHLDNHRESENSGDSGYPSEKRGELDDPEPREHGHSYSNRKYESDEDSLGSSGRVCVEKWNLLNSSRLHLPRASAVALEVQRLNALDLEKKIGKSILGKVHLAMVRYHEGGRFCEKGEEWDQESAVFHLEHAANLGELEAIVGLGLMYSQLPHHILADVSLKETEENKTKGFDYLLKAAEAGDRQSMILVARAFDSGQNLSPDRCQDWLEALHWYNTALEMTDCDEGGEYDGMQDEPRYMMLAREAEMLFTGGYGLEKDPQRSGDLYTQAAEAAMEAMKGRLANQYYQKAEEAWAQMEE

[15] = target: Inhibitor of nuclear factor kappa-B kinase subunit alpha (Homo sapiens, UniProt O15111); assay type: functional
[16] = target: LIM domain kinase 1 (Homo sapiens, UniProt P53667); assay: Navigating the Kinome. Panel member name: LIMK1; assay type: functional
[17] = target: Tyrosine-protein kinase ABL1 (Homo sapiens, UniProt P00519); assay type: functional
[18] = target: 3-phosphoinositide-dependent protein kinase 1 (Homo sapiens, UniProt O15530); assay type: functional;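 further: value comes from the Navigating the Kinome panel, PDPK1 member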
3-phosphoinositide-dependent protein kinase 1, sequence (O15530 whole entry): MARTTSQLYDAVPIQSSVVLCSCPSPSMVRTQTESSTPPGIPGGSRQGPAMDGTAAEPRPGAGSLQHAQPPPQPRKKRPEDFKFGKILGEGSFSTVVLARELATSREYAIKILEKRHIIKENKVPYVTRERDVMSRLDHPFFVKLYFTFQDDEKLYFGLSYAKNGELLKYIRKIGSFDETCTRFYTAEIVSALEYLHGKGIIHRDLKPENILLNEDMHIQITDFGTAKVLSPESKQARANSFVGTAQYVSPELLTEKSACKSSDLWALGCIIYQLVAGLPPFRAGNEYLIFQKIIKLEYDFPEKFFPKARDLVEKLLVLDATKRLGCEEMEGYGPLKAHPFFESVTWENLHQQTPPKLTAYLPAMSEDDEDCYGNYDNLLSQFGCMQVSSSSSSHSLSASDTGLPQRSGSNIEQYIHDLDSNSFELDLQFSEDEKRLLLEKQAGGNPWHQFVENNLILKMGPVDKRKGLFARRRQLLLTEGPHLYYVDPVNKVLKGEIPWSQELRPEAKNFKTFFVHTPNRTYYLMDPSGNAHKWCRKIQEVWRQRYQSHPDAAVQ

[19] = target: Proto-oncogene tyrosine-protein kinase ROS (Homo sapiens, UniProt P08922); assay type: functional;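 further: ROS1 tested as one member of a kinome-wide kinase panel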
[20] = target: Glycogen synthase kinase-3 beta (Homo sapiens, UniProt P49841); assay type: functional;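 further: value comes from a broad kinome profiling panel, with GSK3B as the panel member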
[21] = target: Tyrosine-protein kinase Srms (Homo sapiens, UniProt Q9H3Y6); assay type: functional;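 further: SRMS measured as one member of a kinome-wide kinase profiling panel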
Tyrosine-protein kinase Srms, sequence (Q9H3Y6 whole entry): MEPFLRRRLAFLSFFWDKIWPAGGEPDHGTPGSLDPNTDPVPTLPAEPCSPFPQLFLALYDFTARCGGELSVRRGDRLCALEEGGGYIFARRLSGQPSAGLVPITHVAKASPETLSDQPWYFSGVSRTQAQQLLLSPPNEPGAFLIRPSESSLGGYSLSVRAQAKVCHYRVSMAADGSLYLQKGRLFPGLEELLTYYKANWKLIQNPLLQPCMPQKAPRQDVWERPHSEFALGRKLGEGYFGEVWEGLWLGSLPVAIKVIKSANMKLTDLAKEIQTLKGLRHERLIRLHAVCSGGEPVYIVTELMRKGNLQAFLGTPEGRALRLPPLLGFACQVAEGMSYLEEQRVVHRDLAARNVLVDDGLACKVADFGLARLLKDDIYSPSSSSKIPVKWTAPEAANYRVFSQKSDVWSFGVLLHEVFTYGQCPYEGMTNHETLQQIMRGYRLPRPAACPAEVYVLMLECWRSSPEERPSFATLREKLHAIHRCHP

[22] = target: Testis-specific serine/threonine-protein kinase 2 (Homo sapiens, UniProt Q96PF2); assay type: functional;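 further: part of the Navigating the Kinome panel, target entry STK22B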
Testis-specific serine/threonine-protein kinase 2, sequence (Q96PF2 whole entry): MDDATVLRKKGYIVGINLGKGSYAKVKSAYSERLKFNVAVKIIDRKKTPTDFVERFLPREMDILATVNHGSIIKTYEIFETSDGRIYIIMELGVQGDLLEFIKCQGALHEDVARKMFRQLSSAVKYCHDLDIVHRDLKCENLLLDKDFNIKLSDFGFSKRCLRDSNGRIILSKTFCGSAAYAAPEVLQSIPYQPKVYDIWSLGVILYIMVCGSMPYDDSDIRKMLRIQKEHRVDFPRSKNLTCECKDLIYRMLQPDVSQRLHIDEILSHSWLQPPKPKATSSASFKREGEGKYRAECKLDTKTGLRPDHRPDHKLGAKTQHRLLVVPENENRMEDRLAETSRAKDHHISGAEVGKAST

[23] = target: Mitogen-activated protein kinase 13 (Homo sapiens, UniProt O15264); assay type: functional
[24] = target: Receptor-type tyrosine-protein kinase FLT3 (Homo sapiens, UniProt P36888); assay type: functional;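 further: FLT3 was tested as one member of a kinome-wide kinase panel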
Receptor-type tyrosine-protein kinase FLT3, sequence (P36888 whole entry): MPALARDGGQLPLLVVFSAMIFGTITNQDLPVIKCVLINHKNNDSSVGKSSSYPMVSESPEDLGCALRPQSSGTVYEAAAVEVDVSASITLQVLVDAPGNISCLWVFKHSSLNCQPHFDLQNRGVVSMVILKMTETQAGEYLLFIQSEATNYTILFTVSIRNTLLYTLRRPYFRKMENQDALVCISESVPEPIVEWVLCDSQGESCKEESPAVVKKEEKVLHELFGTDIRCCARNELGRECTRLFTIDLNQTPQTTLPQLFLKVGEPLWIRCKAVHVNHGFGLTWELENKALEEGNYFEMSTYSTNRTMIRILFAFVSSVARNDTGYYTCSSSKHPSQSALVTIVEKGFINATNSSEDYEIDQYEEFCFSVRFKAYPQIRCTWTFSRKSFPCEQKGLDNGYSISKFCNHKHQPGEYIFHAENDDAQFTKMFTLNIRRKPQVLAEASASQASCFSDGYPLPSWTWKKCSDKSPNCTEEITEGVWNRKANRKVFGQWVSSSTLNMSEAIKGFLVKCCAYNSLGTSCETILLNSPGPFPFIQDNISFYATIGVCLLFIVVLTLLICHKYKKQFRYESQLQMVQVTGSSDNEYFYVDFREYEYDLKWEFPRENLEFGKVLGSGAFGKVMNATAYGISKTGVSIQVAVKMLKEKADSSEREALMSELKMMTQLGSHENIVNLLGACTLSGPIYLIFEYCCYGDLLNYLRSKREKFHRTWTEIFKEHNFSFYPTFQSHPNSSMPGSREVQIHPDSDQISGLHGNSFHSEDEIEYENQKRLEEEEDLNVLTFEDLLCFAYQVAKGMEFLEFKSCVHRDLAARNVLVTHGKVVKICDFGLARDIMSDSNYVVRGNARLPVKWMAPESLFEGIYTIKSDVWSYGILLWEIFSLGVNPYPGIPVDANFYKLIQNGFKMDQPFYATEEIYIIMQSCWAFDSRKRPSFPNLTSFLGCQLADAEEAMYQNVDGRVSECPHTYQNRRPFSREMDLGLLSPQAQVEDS

[25] = target: STE20-like serine/threonine-protein kinase (Homo sapiens, UniProt Q9H2G2); assay type: functional
[26] = target: Protein-tyrosine kinase 6 (Homo sapiens, UniProt Q13882); assay type: functional
[27] = target: Nonstructural protein 1 (Influenza A virus, UniProt Q194T2); assay type: functional, Influenza A virus (A/California/07/2009(H1N1))
[28] = Luminescence Cell-Based Dose Response HTS to Identify Activators of Luciferase Translation or Activity in H4 […] Cells. [Related pubchem assays: 1829 (Project Summary), 1814 (Primary HTS)]; assay type: functional

Activin receptor type-1, sequence (Q04771 whole entry): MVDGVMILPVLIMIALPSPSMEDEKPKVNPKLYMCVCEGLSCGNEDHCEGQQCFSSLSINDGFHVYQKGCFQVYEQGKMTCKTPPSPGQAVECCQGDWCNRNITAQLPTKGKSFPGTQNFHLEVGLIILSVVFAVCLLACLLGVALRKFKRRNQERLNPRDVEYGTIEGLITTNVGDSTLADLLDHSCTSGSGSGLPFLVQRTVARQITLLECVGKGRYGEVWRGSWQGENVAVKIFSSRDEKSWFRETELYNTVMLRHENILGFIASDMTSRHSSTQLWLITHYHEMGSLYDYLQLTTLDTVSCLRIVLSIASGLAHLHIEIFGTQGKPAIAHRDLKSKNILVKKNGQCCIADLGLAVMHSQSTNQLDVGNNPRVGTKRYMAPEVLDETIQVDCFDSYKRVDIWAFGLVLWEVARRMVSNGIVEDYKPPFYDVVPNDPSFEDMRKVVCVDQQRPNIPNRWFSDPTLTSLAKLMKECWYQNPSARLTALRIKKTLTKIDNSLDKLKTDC

With `CCn1c(-c2nonc2N)nc2cncc(C(=O)N3CCC(N)C3)c21` (stereo not drawn) the Ki [1] was > 3160 nM (inactive), the Ki [2] was > 3980 nM (inactive) and the Ki [3] was 2510 nM (active). For the same compound, the Ki [4] was > 7940 nM (inactive), the Ki [5] was 3980 nM (active) and the Ki [6] was > 3160 nM (inactive).
With `Cc1[nH]nc2ccc(-c3cncc(OCC(N)Cc4c[nH]c5ccccc45)c3)cc12` (stereo not drawn) the Ki [7] was 501 nM (active), the Ki [8] was > 1580 nM (inactive) and the Ki [9] was 3980 nM (active). For the same compound, the Ki [10] was > 2000 nM (inactive), the Ki [11] was 126 nM (active) and the Ki [12] was > 1580 nM (inactive). For the same compound, the Ki [13] was 251 nM (active), the Ki [14] was > 3980 nM (inactive) and the Ki [15] was 316 nM (active). The Ki [16] was 794 nM (active), the Ki [17] was > 631 nM (inactive) and the Ki [18] was 1580 nM (active). For the same compound, the Ki [19] was 794 nM (active), the Ki [20] was 10 nM (active) and the Ki [21] was > 1580 nM (inactive). For the same compound, the Ki [22] was > 1580 nM (inactive), the Ki [23] was 1580 nM (active) and the Ki [24] was 316 nM (active). The Ki [25] was > 10000 nM (inactive) and the Ki [26] was > 2510 nM (inactive).
With `COC(=O)c1ccccc1NC1=C/C(=N\S(=O)(=O)c2cccs2)c2ccccc2C1=O` the IC50 [27] was 5160 nM (active) and the EC50 [28] was > 120000 nM (not active).
